24 compounds from US9233981B1, “Substituted phenyl hexahydropyrano[3,4-d][1,3]thiazin-2-amine compounds” (Pfizer Inc., priority 2013, dated 2016) can be followed below.

The target of one assay is BACE1 enzyme (Homo sapiens (Human), UniProt P56817). The assay can be described thus: BACE1 Cell-Free Assay (fluorescence polarization, cleavage of synthetic APP substrate). In kind it is biochemical. To be noted: geometric mean of 2-3 determinations; Examples 32-34 (footnote b) single determination. The text has this: Beta-secretase (BACE) is one of the enzymes involved in the generation of the amyloid beta peptide found in the amyloid plaques of Alzheimer's Disease patients. This assay measures the inhibition of the beta-secretase enzyme as it cleaves a non-native peptide.
Chain of BACE1 enzyme (P56817 46-457): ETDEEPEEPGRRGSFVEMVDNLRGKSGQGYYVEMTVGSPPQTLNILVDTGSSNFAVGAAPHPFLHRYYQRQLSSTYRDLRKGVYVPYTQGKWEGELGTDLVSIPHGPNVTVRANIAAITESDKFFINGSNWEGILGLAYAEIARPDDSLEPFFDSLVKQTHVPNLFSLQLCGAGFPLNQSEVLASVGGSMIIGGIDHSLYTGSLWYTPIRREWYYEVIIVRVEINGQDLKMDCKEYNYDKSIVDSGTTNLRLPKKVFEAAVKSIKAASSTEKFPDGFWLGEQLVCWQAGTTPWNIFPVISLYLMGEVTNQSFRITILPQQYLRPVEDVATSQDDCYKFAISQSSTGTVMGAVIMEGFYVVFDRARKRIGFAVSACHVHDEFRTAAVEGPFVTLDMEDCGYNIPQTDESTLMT
A synthetic APP substrate that can be cleaved by beta-secretase having N-terminal biotin and made fluorescent by the covalent attachment of Oregon Green at the Cys residue is used to assay beta-secretase activity in the presence or absence of the inhibitory compounds. The substrate is Biotin-GLTNIKTEEISEISY^EVEFR-C[Oregon Green]KK-OH. The BACE1 enzyme is affinity purified material from conditioned media of CHO-K1 cells that have been transfected with a soluble BACE construct (BACE1deltaTM96His). Compounds are incubated in a log dose response curve from a top concentration of 100 μM with BACE1 enzyme and the biotinylated fluorescent peptide in 384-well black plates (Thermo Scientific #4318). BACE1 is at a final concentration of 0.1 nM with a final concentration of peptide substrate of 150 nM in a reaction volume of 30 μL assay buffer [100 mM sodium acetate, pH 4.5 (brought to pH with acetic acid), and 0.001% Tween-20]. Plates are covered and incubated for 3 hours at 37° C. The reaction is stopped with the addition of 30 μL of 1.5 μM Streptavidin (Pierce, #21125). After a 10 minute incubation at room temperature, plates are read on a PerkinElmer EnVision for fluorescence polarization (Ex485 nm/Em530 nm). The activity of the beta-secretase enzyme is detected by changes in the fluorescence polarization that occur when the substrate is cleaved by the enzyme.
(In general: Fluorescence polarisation rises when a labelled molecule tumbles more slowly, as on binding a larger partner.)

For assay [1], the system named is sAPPβ levels in H4 human neuroglioma cells over-expressing the wild-type human APP695. Kind of assay: Whole Cell Assay (In Vitro sAPPβ Assay), TMB-ELISA. It counts as cell-based. To be noted: 18 hours, geometric mean of 2-3 determinations, Examples 32-34 (footnote b) single determination. The protocol:
Whole Cell Assay (In Vitro sAPPpβ Assay):
H4 human neuroglioma cells over-expressing the wild-type human APP695 are treated for 18 hours with compound in a final concentration 1% DMSO. sAPPβ levels are measured using TMB-ELISA with capture APP N-terminal antibody (Affinity BioReagents, OMA1-03132), wild-type sAPPβ specific reporter p192 (Elan), and tertiary anti rabbit-HRP (GE Healthcare).
Background: In an ELISA, binding on a coated surface is turned into a signal by an enzyme label.

The term IC50 denotes the midpoint of a concentration-inhibition curve. A low value points to inhibition by little substance. As to `NC1=N[C@@]2(c3ccc(F)cc3F)CO[C@@H](c3ccc(F)cc3)C[C@H]2CS1` [Example 1, (4aR,6R,8aS)-8a-(2,4-difluorophenyl)-6-(4-fluorophenyl)-4,4a,5,6,8,8a-hexahydropyrano[3,4-d][1,3]thiazin-2-amine], the values for the 50% inhibitory concentration (IC50) (against BACE1 enzyme; in assay [1]) were 14 nM and 0.006 nM, respectively.
Regarding `NC1=N[C@@]2(c3ccc(F)cc3F)CO[C@@H](c3cccc(F)c3)C[C@H]2CS1` [Example 2, (4aR,6R,8aS)-8a-(2,4-difluorophenyl)-6-(3-fluorophenyl)-4,4a,5,6,8,8a-hexahydropyrano[3,4-d][1,3]thiazin-2-amine], the 50% inhibitory concentration (IC50) on BACE1 enzyme was 22 nM; in assay [1], 0.009 nM.
In the case of `NC1=N[C@@]2(c3ccc(F)cc3F)CO[C@@H](c3ccccc3F)C[C@H]2CS1` [Example 3, (4aR,6R,8aS)-8a-(2,4-difluorophenyl)-6-(2-fluorophenyl)-4,4a,5,6,8,8a-hexahydropyrano[3,4-d][1,3]thiazin-2-amine], the IC50 on BACE1 enzyme stood at 86 nM; in assay [1], 0.055 nM.
Take `NC1=N[C@@]2(c3ccc(F)cc3F)CO[C@@H](c3ccc(F)cc3F)C[C@H]2CS1` [Example 4, (4aR,6R,8aS)-6,8a-bis(2,4-difluorophenyl)-4,4a,5,6,8,8a-hexahydropyrano[3,4-d][1,3]thiazin-2-amine]: the values for the half-maximal inhibitory concentration (IC50) (on BACE1 enzyme; in assay [1]) were 39 nM and 0.025 nM, respectively.
For `NC1=N[C@@]2(c3ccc(F)cc3F)CO[C@@H](c3ccc(F)c(F)c3)C[C@H]2CS1` [Example 5, (4aR,6R,8aS)-8a-(2,4-difluorophenyl)-6-(3,4-difluorophenyl)-4,4a,5,6,8,8a-hexahydropyrano[3,4-d][1,3]thiazin-2-amine] the same measures were 10 nM and 0.007 nM.
For `Cc1ccc([C@H]2C[C@H]3CSC(N)=N[C@@]3(c3ccc(F)cc3F)CO2)cc1` [Example 6, (4aR,6R,8aS)-8a-(2,4-difluorophenyl)-6-(4-methylphenyl)-4,4a,5,6,8,8a-hexahydropyrano[3,4-d][1,3]thiazin-2-amine] the same measures were 24 nM and 0.005 nM.
In the case of `Cc1ccccc1[C@H]1C[C@H]2CSC(N)=N[C@@]2(c2ccc(F)cc2F)CO1` [Example 7, (4aR,6R,8aS)-8a-(2,4-difluorophenyl)-6-(2-methylphenyl)-4,4a,5,6,8,8a-hexahydropyrano[3,4-d][1,3]thiazin-2-amine], the concentration for half-maximal inhibition (IC50) at BACE1 enzyme was determined as 970 nM; in assay [1] it was 0.665 nM.
As to `Cc1cc([C@H]2C[C@H]3CSC(N)=N[C@@]3(c3ccc(F)cc3F)CO2)ccc1F` [Example 8, (4aR,6R,8aS)-8a-(2,4-difluorophenyl)-6-(4-fluoro-3-methylphenyl)-4,4a,5,6,8,8a-hexahydropyrano[3,4-d][1,3]thiazin-2-amine], the values for the half-maximal inhibitory concentration (IC50) (on BACE1 enzyme; in assay [1]) were 6 nM and 0.008 nM, respectively.
Taken in the same sequence, the figures for `Cc1ccc([C@H]2C[C@H]3CSC(N)=N[C@@]3(c3ccc(F)cc3F)CO2)cc1F` [Example 9, (4aR,6R,8aS)-8a-(2,4-difluorophenyl)-6-(3-fluoro-4-methylphenyl)-4,4a,5,6,8,8a-hexahydropyrano[3,4-d][1,3]thiazin-2-amine] were 13 nM and 0.012 nM.
Taken in the same sequence, the figures for `Cc1cc(F)cc([C@H]2C[C@H]3CSC(N)=N[C@@]3(c3ccc(F)cc3F)CO2)c1` [Example 10, (4aR,6R,8aS)-8a-(2,4-difluorophenyl)-6-(3-fluoro-5-methylphenyl)-4,4a,5,6,8,8a-hexahydropyrano[3,4-d][1,3]thiazin-2-amine] were 16 nM and 0.038 nM.
Taken in the same sequence, the figures for `Cc1ccc(F)c([C@H]2C[C@H]3CSC(N)=N[C@@]3(c3ccc(F)cc3F)CO2)c1` [Example 11, (4aR,6R,8aS)-8a-(2,4-difluorophenyl)-6-(2-fluoro-5-methylphenyl)-4,4a,5,6,8,8a-hexahydropyrano[3,4-d][1,3]thiazin-2-amine] were 21 nM and 0.017 nM.
`NC1=N[C@@]2(c3ccc(F)cc3F)CO[C@@H](c3ccc(Cl)cc3)C[C@H]2CS1` [Example 12, (4aR,6R,8aS)-6-(4-chlorophenyl)-8a-(2,4-difluorophenyl)-4,4a,5,6,8,8a-hexahydropyrano[3,4-d][1,3]thiazin-2-amine]: the figures for the 50% inhibitory concentration (IC50) (at BACE1 enzyme; in assay [1]) were 15 nM and 0.016 nM, respectively.
For `NC1=N[C@@]2(c3ccc(F)cc3F)CO[C@@H](c3cccc(C(F)(F)F)c3)C[C@H]2CS1` [Example 13, (4aR,6R,8aS)-8a-(2,4-difluorophenyl)-6-[3-(trifluoromethyl)phenyl]-4,4a,5,6,8,8a-hexahydropyrano[3,4-d][1,3]thiazin-2-amine] the same measures were 97 nM and 0.222 nM.
As to `NC1=N[C@@]2(c3ccc(F)cc3F)CO[C@@H](c3ccc(C(F)(F)F)cc3)C[C@H]2CS1` [Example 14, (4aR,6R,8aS)-8a-(2,4-difluorophenyl)-6-[4-(trifluoromethyl)phenyl]-4,4a,5,6,8,8a-hexahydropyrano[3,4-d][1,3]thiazin-2-amine], the concentration for half-maximal inhibition (IC50) in assay [1] was 0.176 nM.
As for `NC1=N[C@@]2(c3ccc(F)cc3F)CO[C@@H](c3ccc(OC(F)(F)F)cc3)C[C@H]2CS1` [Example 15, (4aR,6R,8aS)-8a-(2,4-difluorophenyl)-6-[4-(trifluoromethoxy)phenyl]-4,4a,5,6,8,8a-hexahydropyrano[3,4-d][1,3]thiazin-2-amine], the values for the IC50 (at BACE1 enzyme; in assay [1]) were 21 nM and 0.142 nM, respectively.
For the compound `COc1ccc([C@H]2C[C@H]3CSC(N)=N[C@@]3(c3ccc(F)cc3F)CO2)cc1` [Example 16, (4aR,6R,8aS)-8a-(2,4-difluorophenyl)-6-(4-methoxyphenyl)-4,4a,5,6,8,8a-hexahydropyrano[3,4-d][1,3]thiazin-2-amine], the values for the IC50 (on BACE1 enzyme; in assay [1]) were 29 nM and 0.018 nM, respectively.
On to `COc1ccccc1[C@H]1C[C@H]2CSC(N)=N[C@@]2(c2ccc(F)cc2F)CO1` [Example 17, (4aR,6R,8aS)-8a-(2,4-difluorophenyl)-6-(2-methoxyphenyl)-4,4a,5,6,8,8a-hexahydropyrano[3,4-d][1,3]thiazin-2-amine], for which the IC50 was found to be 2210 nM against BACE1 enzyme and 0.691 nM in assay [1].
On to `COc1cc([C@H]2C[C@H]3CSC(N)=N[C@@]3(c3ccc(F)cc3F)CO2)ccc1F` [Example 18, (4aR,6R,8aS)-8a-(2,4-difluorophenyl)-6-(4-fluoro-3-methoxyphenyl)-4,4a,5,6,8,8a-hexahydropyrano[3,4-d][1,3]thiazin-2-amine], for which the figures for the IC50 (at BACE1 enzyme; in assay [1]) were 214 nM and 0.095 nM, respectively.
Taken in the same sequence, the figures for `COc1ccc([C@H]2C[C@H]3CSC(N)=N[C@@]3(c3ccc(F)cc3F)CO2)cc1F` [Example 19, (4aR,6R,8aS)-8a-(2,4-difluorophenyl)-6-(3-fluoro-4-methoxyphenyl)-4,4a,5,6,8,8a-hexahydropyrano[3,4-d][1,3]thiazin-2-amine] were 44 nM and 0.023 nM.
On to `COc1ccc([C@H]2C[C@H]3CSC(N)=N[C@@]3(c3ccc(F)cc3F)CO2)c(F)c1` [Example 20, (4aR,6R,8aS)-8a-(2,4-difluorophenyl)-6-(2-fluoro-4-methoxyphenyl)-4,4a,5,6,8,8a-hexahydropyrano[3,4-d][1,3]thiazin-2-amine], for which the results for the 50% inhibitory concentration (IC50) (against BACE1 enzyme; in assay [1]) were 83 nM and 0.039 nM, respectively.
Taken in the same sequence, the figures for `COc1cc(F)cc([C@H]2C[C@H]3CSC(N)=N[C@@]3(c3ccc(F)cc3F)CO2)c1` [Example 21, (4aR,6R,8aS)-8a-(2,4-difluorophenyl)-6-(3-fluoro-5-methoxyphenyl)-4,4a,5,6,8,8a-hexahydropyrano[3,4-d][1,3]thiazin-2-amine] were 335 nM and 0.216 nM.
Taken in the same sequence, the figures for `COc1ccc(F)c([C@H]2C[C@H]3CSC(N)=N[C@@]3(c3ccc(F)cc3F)CO2)c1` [Example 22, (4aR,6R,8aS)-8a-(2,4-difluorophenyl)-6-(2-fluoro-5-methoxyphenyl)-4,4a,5,6,8,8a-hexahydropyrano[3,4-d][1,3]thiazin-2-amine] were 397 nM and 0.248 nM.
With `CCOc1ccc([C@H]2C[C@H]3CSC(N)=N[C@@]3(c3ccc(F)cc3F)CO2)cc1` [Example 23, (4aR,6R,8aS)-8a-(2,4-difluorophenyl)-6-(4-ethoxyphenyl)-4,4a,5,6,8,8a-hexahydropyrano[3,4-d][1,3]thiazin-2-amine], the IC50 is 11 nM at BACE1 enzyme and 0.021 nM in assay [1].
Taken in the same sequence, the figures for `COCc1cccc([C@H]2C[C@H]3CSC(N)=N[C@@]3(c3ccc(F)cc3F)CO2)c1` [Example 24, (4aR,6R,8aS)-8a-(2,4-difluorophenyl)-6-[3-(methoxymethyl)phenyl]-4,4a,5,6,8,8a-hexahydropyrano[3,4-d][1,3]thiazin-2-amine] were 161 nM and 0.071 nM.
